Source: patent publication US8455507B2, “Aminopyrimidines useful as kinase inhibitors” (Vertex Pharmaceuticals Incorporated, priority 2007, dated 2013)

Experiments:
Colo205 cells = experiment: Analysis of Cell Proliferation and Viability; assay type: cell-based; settings: Homo sapiens, COLO 205, 72 hours, lower bound 100 nM, upper bound 1 uM nM [sic], read-out: IC50 values after 72 hours
Description: Compounds were screened for their ability to inhibit cell proliferation and their effects on cell viability using Colo205 cells obtained from ECACC and using the assay shown below.
Colo205 cells were seeded in 96 well plates and serially diluted compound was added to the wells in duplicate. Control groups included untreated cells, the compound diluent (0.1% DMSO alone) and culture medium without cells. The cells were then incubated for 72 or 96 hrs at 37 C in an atmosphere of 5% CO2/95% humidity.
To measure proliferation, 3 h prior to the end of the experiment 0.5 μCi of 3H thymidine was added to each well. Cells were then harvested and the incorporated radioactivity counted on a Wallac microplate beta-counter. Cell viability was assessed using Promega CellTiter 96AQ to measure MTS conversion. Dose response curves were calculated using either Prism 3.0 (GraphPad) or SoftMax Pro 4.3.1 LS (Molecular Devices) software.

Aurora-2 (Aurora A) = target: T1, Aurora-2 (Aurora A) (Homo sapiens, UniProt O14965); experiment: Aurora-2 (Aurora A) Inhibition Assay (coupled enzyme assay); assay type: biochemical; settings: 400 μM ATP, 40 nM Aurora-2, 30° C.; read-out: inhibit Aurora A, Ki
T1 sequence (O14965 1-403): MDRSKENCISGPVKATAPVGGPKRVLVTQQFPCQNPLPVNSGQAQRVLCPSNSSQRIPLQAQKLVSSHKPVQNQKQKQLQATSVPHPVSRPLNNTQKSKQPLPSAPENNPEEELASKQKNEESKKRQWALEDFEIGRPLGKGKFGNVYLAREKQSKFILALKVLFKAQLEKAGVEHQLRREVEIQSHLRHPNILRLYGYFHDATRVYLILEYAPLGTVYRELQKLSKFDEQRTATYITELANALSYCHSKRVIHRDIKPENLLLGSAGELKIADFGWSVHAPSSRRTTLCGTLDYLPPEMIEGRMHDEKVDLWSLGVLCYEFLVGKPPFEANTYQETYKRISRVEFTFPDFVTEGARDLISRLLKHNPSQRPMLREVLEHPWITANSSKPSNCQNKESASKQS
Description: Compounds were screened for their ability to inhibit Aurora-2 using a standard coupled enzyme assay (Fox et al., Protein Sci., (1998) 7, 2249). Assays were carried out in a mixture of 100 mM Hepes (pH7.5), 10 mM MgCl2, 1 mM DTT, 25 mM NaCl, 2.5 mM phosphoenolpyruvate, 300 μM NADH, 30 μg/ml pyruvate kinase and 10 μg/ml lactate dehydrogenase. Final substrate concentrations in the assay were 400 μM ATP (Sigma Chemicals) and 570 μM peptide (Kemptide, American Peptide, Sunnyvale, Calif.). Assays were carried out at 30° C. and in the presence of 40 nM Aurora-2.
An assay stock buffer solution was prepared containing all of the reagents listed above, with the exception of Aurora-2 and the test compound of interest. 55 μl of the stock solution was placed in a 96 well plate followed by addition of 2 μl of DMSO stock containing serial dilutions of the test compound (typically starting from a final concentration of 7.5 μM). The plate was preincubated for 10 minutes at 30° C. and the reaction initiated by addition of 10 μl of Aurora-2. Initial reaction rates were determined with a Molecular Devices SpectraMax Plus plate reader over a 10 minute time course. IC50 and Ki data were calculated from non-linear regression analysis using the Prism software package (GraphPad Prism version 3.0cx for Macintosh, GraphPad Software, San Diego Calif., USA).

Aurora-1 (Aurora B) = Aurora-1 (Aurora B) (Homo sapiens, UniProt Q96GD4); experiment: Aurora-1 (Aurora B) Inhibition Assay (Radiometric); assay type: biochemical; settings: 800 μM ATP, 25° C., read-out: inhibit Aurora A, Ki (printed under the Aurora-1 (Aurora B) assay)
Sequence of Aurora-1 (Aurora B) (Q96GD4 whole entry): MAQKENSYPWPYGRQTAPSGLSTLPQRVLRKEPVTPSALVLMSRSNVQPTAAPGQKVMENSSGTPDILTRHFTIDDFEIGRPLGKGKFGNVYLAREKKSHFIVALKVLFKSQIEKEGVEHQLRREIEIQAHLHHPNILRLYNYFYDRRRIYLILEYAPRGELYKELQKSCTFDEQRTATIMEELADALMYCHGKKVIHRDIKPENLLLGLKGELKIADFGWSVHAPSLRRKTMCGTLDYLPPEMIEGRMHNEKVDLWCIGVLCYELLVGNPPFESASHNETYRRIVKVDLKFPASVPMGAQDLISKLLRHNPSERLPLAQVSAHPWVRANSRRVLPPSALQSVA
Description: An assay buffer solution was prepared which consisted of 25 mM HEPES (pH 7.5), 10 mM MgCl2, 0.1% BSA and 10% glycerol. A 22 nM Aurora-B solution, also containing 1.7 mM DTT and 1.5 mM Kemptide (LRRASLG), was prepared in assay buffer. To 22 μL of the Aurora-B solution, in a 96-well plate, was added 2 μl of a compound stock solution in DMSO and the mixture allowed to equilibrate for 10 minutes at 25° C. The enzyme reaction was initiated by the addition of 16 μl stock [γ-^33P]-ATP solution (˜20 nCi/μL) prepared in assay buffer, to a final assay concentration of 800 μM. The reaction was stopped after 3 hours by the addition of 16 μL 500 mM phosphoric acid and the levels of ^33P incorporation into the peptide substrate were determined by the following method.
A phosphocellulose 96-well plate (Millipore, Cat no. MAPHNOB50) was pre-treated with 100 μL of a 100 mM phosphoric acid prior to the addition of the enzyme reaction mixture (40 μL). […] Levels of non-enzyme catalyzed background radioactivity were determined by adding 16 μL of the 500 mM phosphoric acid to control wells, containing all assay components (which acts to denature the enzyme), prior to the addition of the [γ-^33P]-ATP solution. Levels of enzyme catalyzed ^33P incorporation were calculated by subtracting mean background counts from those measured at each inhibitor concentration. […]

[1] = target: N-terminally truncated (Δ27) Abl kinase (Homo sapiens, UniProt P00519); experiment: Abl Kinase Activity Inhibition Assay (coupled enzyme system); assay type: biochemical; settings: 110 μM ATP, 21 nM Abl kinase, 30° C.; read-out: inhibit Abl kinase, Ki value
Sequence of N-terminally truncated (Δ27) Abl kinase (P00519 whole entry, stated change not applied, the tested form may be a part): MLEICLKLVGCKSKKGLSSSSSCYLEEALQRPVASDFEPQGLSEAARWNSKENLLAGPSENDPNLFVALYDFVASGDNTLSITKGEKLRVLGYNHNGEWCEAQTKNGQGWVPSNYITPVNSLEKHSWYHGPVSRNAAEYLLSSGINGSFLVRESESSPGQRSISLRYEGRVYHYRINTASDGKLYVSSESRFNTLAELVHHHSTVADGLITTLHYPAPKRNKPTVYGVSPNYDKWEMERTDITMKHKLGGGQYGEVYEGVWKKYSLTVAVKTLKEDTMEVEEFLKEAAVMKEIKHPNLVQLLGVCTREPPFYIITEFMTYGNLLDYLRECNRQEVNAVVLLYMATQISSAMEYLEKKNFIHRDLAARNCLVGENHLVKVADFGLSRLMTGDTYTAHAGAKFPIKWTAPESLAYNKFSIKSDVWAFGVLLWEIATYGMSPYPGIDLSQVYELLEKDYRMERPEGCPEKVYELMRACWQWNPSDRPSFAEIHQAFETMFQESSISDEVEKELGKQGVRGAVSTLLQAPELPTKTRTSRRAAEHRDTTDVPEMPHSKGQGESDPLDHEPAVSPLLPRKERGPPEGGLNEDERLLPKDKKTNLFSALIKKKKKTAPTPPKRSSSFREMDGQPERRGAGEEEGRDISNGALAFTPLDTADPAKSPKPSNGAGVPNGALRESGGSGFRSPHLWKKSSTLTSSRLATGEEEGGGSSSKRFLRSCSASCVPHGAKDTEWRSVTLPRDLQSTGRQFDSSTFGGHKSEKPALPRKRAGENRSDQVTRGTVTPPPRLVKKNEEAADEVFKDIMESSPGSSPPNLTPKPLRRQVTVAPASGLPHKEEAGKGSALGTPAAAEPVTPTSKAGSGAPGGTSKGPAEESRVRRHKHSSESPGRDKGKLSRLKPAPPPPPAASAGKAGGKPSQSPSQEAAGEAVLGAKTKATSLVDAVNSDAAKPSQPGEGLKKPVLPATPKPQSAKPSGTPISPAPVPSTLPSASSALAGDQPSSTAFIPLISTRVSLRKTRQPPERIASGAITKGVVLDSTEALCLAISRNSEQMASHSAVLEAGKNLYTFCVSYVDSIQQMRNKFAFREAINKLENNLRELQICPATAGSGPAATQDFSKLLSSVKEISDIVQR
Description: Compounds were screened for their ability to inhibit N-terminally truncated (Δ27) Abl kinase activity using a standard coupled enzyme system (Fox et al., Protein Sci., 7, pp. 2249 (1998)). Reactions were carried out in a solution containing 100 mM HEPES (pH 7.5), 10 mM MgCl2, 25 mM NaCl, 300 μM NADH, 1 mM DTT and 3% DMSO. Final substrate concentrations in the assay were 110 μM ATP (Sigma Chemicals, St Louis, Mo.) and 70 μM peptide (EAIYAAPFAKKK, American Peptide, Sunnyvale, Calif.). Reactions were carried out at 30° C. and 21 nM Abl kinase. Final concentrations of the components of the coupled enzyme system were 2.5 mM phosphoenolpyruvate, 200 μM NADH, 60 μg/ml pyruvate kinase and 20 μg/ml lactate dehydrogenase.
An assay stock buffer solution was prepared containing all of the reagents listed above with the exception of ATP and the test compound of interest. The assay stock buffer solution (60 μl) was incubated in a 96 well plate with 2 μl of the test compound of interest at final concentrations typically spanning 0.002 μM to 30 μM at 30° C. for 10 min. […] Rates of reaction were obtained using a Molecular Devices Spectramax plate reader (Sunnyvale, Calif.) over 10 min at 30° C. The Ki values were determined from the residual rate data as a function of inhibitor concentration using nonlinear regression (Prism 3.0, Graphpad Software, San Diego, Calif.).

Row | IC50 (Colo205 cells) [nM] | Structure (SMILES) | other results
1 | 100 to 1000 | Cc1cc(Nc2cc(N3CCN(C(C)(C)CF)CC3)nc(Sc3cc(F)c4nc(C)ccc4c3)n2)[nH]n1 [Compound I-6] | –
2 | 100 to 1000 | Cc1cc(Nc2cc(N3CCN(C(C)(C)CF)CC3)nc(Sc3ccc4nc(C(F)(F)F)cn4c3)n2)[nH]n1 [Compound I-11] | –
3 | – | Cc1cc(Nc2cc(N3CCN(C4CCN(C)CC4)CC3)nc(Sc3cc(F)c4nc(C)ccc4c3)n2)[nH]n1 [Compound I-13, 2-(8-fluoro-2-methylquinolin-6-ylthio)-N-(3-methyl-1H-pyrazol-5-yl)-6-(4-(1-methylpiperidin-4-yl)piperazin-1-yl)pyrimidin-4-amine] | Ki (Aurora-2 (Aurora A)): 1 to 2 nM; Ki (Aurora-1 (Aurora B)): 10 to 20 nM; Ki [1]: < 25 nM
4 | 100 to 1000 | Cc1cc(Nc2cc(N3CCN(C4CC4)CC3)nc(Sc3ccc4nc(C(F)(F)F)cn4c3)n2)[nH]n1 [Compound I-14] | –
5 | 100 to 1000 | Cc1cc(Nc2cc(N3CCN(C4CC4)CC3)nc(Sc3cc(F)c4nc(C)ccc4c3)n2)[nH]n1 [Compound I-15] | –
6 | 100 to 1000 | Cc1cc(Nc2cc(N3CCN(C(C)(C)CF)CC3)nc(Sc3ccc4nc(C(F)(F)F)n(C)c4c3)n2)[nH]n1 [Compound I-21] | –
7 | 100 to 1000 | Cc1cc(Nc2cc(N3CCN(CC(F)(F)F)CC3)nc(Sc3ccc4nc(C(F)(F)F)cn4c3)n2)[nH]n1 [Compound I-22] | –
8 | 100 to 1000 | Cc1cc(Nc2cc(N3CCN(CC(F)(F)F)CC3)nc(Sc3cc(F)c4nc(C)ccc4c3)n2)[nH]n1 [Compound I-23] | –
